What was measured:
Experiment in all cases: in-gel dye staining after TBE-urea PAGE
Settings in all cases: 100 mM KCl, 1 mM MgCl2; 40 mM HEPES pH 7.5, 10 µM dye; very low fluorescence
[1] = system: 4LE-v3 (DNA, aptamer) TCCTTCGCACAGCACACCTGCCGTATAGCTCTGAATCAATAGTAGGGATGATGCGGCAGTGGGCTTCGCAGAACAGTGTTTATTCTGCGAGGGGACTAGGATTTTAGGGAGGCGATTCCTCCTGCC
[2] = system: 4LE-v2 (DNA, aptamer) TCCTTCGCACAGCACACCTGCCGTATTAGTAGGGATGATGCGGCAGTGGGCTTCGCAGAACAGTGTTTATTCTGCGAGGGGACTAAGCTCTGAATCAAGGATTTTAGGGAGGCGATTCCTCCTGCC
[3] = system: 4LE-v1 (DNA, aptamer) TCCTTCGCACAGCACATAGTAGGGATGATGCGGCAGTGGGCTTCGCAGAACAGTGTTTATTCTGCGAGGGGACTACCTGCCGTATAGCTCTGAATCAAGGATTTTAGGGAGGCGATTCCTCCTGCC

Measured: binding

CC1=N/C(=C\c2cc(F)c(O)c(F)c2)C(=O)N1CC(F)(F)F
weak: all assays above
